The values that follow are results of earlier work, collected in patent publication EP4506356A1, “METHANOL-INDUCIBLE PROMOTER AND USE THEREOF IN PREPARATION OF L-ALANYL-L-GLUTAMINE” (Wuhan Grand Hoyo Co., Ltd., priority 2022, dated 2023).

In brackets after ≈: the same amount, converted by molar mass. Residues, ends and D or L forms follow the SMILES beside them.

Turning to `C[C@H](N)C(=O)N[C@@H](CCC(N)=O)C(=O)O` [Alanyl-glutamine dipeptide, L-alanyl-L-glutamine] (H-Ala-Gln-OH), the water solubility is listed as 586 g/L (≈ 2700 mM).
